The subject of data set [1] is Human pleural mesothelioma cells NCI-H226. The data set can be described thus: Proliferation inhibition assay of human pleural mesothelioma cells NCI-H226 (CCK8). Format: cell-based. The settings on record: 72 h, 3 days incubation.
The test system of another data set is YAP-TEAD. The data set can be described thus: Nano luciferase method to detect YAP-TEAD inhibitor activity (293T cells transfected with pGL3B-8×GTiiC-nLuc-CMV-fLuc). Format: cell-based. The settings on record: Homo sapiens, HEK-293T; transfected 293T cells, 48 hours incubation; read-out: Nano Luciferas detection (IC50).
Data set [2] in a line: Pharmacokinetic study of the drug, oral administration to rats (plasma, cerebrospinal fluid, brain tissue). The settings on record: SD rat, 10 mg/kg, single; for Kp: brain tissue (post perfusion) and plasma, read-out: B/P value; for Kp uu: in vivo, read-out: Kpuu Value; for AUC(0-inf) / AUC(0-t) / Cmax / MRT last / Tmax: plasma. Format: in vivo. From the text: Experimental Example 3 Pharmacokinetic Study of the Drug
Oral Administration Solvent: 5% DMSO+10% Solutol HS15+85% Saline
Oral administration preparation process: weighed the appropriate amount of powder, added the appropriate volume of DMSO, vortex, then added the appropriate volume of Solutol solution, vortex, and added the appropriate amount of saline, vortex ultrasound into a homogeneous and clarified state of the preparation solution.
The animal room was equipped with an air-conditioning system and well ventilated, and the indoor temperature was maintained in the range of 20-26° C., and the humidity was maintained in the range of 40%-70%. The animal room was artificially illuminated with 12 hours of light and 12 hours of dark (except for the working light that needed to be turned on for experimental operation and cleaning), and the experimental animals were free to feed and drink.
Animals were purchased and fed normally for at least 3 days, and rats that were examined by a veterinarian and had qualified physical conditions were enrolled in this experiment; each rat was labeled with a tail mark. Animals in the oral administration group were fasted overnight the day before administration, and resumed feeding and drinking freely 4 hours after administration.
Before administration, checked the state of the administered preparation, ensured the homogeneity of the preparation by vortexing, stirring or oscillating, and calculated the theoretical volume of the administered drug for each SD rat in each group according to the following formula.
Mode of administration: Oral administration to rats, fasted overnight prior to administration.

As for `C=CC(=O)N1CCC(c2cccnc2Oc2ccc(C(F)(F)F)cc2)CC1` [Compound T59], in data set [1], the concentration for half-maximal inhibition (IC50) was not above 100 nM. Moreover, the IC50 with YAP-TEAD is not above 100 nM. For the same molecule, in data set [2], the “HL—” value was 2.66 h, the Kp came out at 1.22, the Kp uu amounted to 0.765 and the AUC(0-inf) was determined as 3920 ng·h/mL. In data set [2], the AUC(0-t) amounted to 3910 ng·h/mL, the Cmax was 679 ng/mL, the MRT last came to 4.6 h and the Tmax is 1.5 h.
In data set [1], `C=CC(=O)N1CCC(c2cc(-c3cnn(C)c3)cnc2Nc2ccc(C(F)(F)F)cc2)CC1` [Compound T61] gave an IC50 of 1000 to 5000 nM. For the same molecule, the IC50 with YAP-TEAD was not above 100 nM. Further, in data set [2], the “HL—” value is 2.95 h, the Kp came to 0.56, the Kp uu is 0.038 and the AUC(0-inf) worked out at 13200 ng·h/mL. Moreover, in data set [2], the AUC(0-t) stood at 10800 ng·h/mL, the Cmax came out at 1960 ng/mL, the mean residence time MRT last turned out to be 3.49 h and the Tmax was 2.67 h.
`C=CC(=O)N1CCC(c2cc(-c3cc[nH]n3)cnc2Nc2ccc(C(F)(F)F)cc2)CC1` [Compound T92] came in with an IC50 in data set [1] of 100 to 1000 nM. The IC50 in the data set with YAP-TEAD is not above 100 nM. For the same molecule, in data set [2], the “HL—” value came to 1.59 h, the total exposure AUC(0-inf) amounted to 4830 ng·h/mL, the AUC(0-t) was 4770 ng·h/mL and the highest level (Cmax) was 901 ng/mL. Further, in data set [2], the MRT last is 3.8 h and the Tmax was found to be 2.67 h.

One may read the IC50 as the midpoint of a concentration-inhibition curve. As usually defined, the AUC(0-inf) is total exposure, with the tail of the curve extrapolated. Low readings indicate low exposure, high ones high exposure. As a reminder, the AUC(0-t) is exposure summed from dosing to a finite time, without extrapolation to infinity. Read a low AUC(0-t) as less exposure. For orientation: Cmax means the peak of the concentration-time curve. One may read the MRT last as a mean duration of stay, worked out from the concentration-time curve. In general, Tmax refers to the time from dosing to the highest level.

These data come from patent publication US20260152480A1, “POLYCYCLIC COMPOUND AND USE THEREOF” (TYK MEDICINES , INC., priority 2022, published 2026).
